pIC50: −log10 of the molar value.
Legend:
[1] = Metabolic stability (microsomes, mice); type: in vitro ADME; settings: for microsomal CLint: mouse, liver microsomes
[2] = tested on: MK-801-induced deficits in the NOR test; test: Novel object recognition test (MK-801-induced deficits); type: in vivo, Albino Swiss mice; settings: 30 min before MK-801 (0.3 mg/kg), mice
Protocol: The experiment was performed according to [Nilsson et al., 2007] with minor modifications ([Woźniak et al., 2016b]). Following a 2-day habituation period (10 min/day), a training trial was performed, where mice were allowed to explore two identical objects for 5 min. About 1 h later, a test trial was conducted, where one of the familiar object was replaced by a novel object. The animals were then allowed to explore the objects for 5 min. […] Time spend exploring (i.e., sniffing or touching) the familiar (Tfamiliar) or novel object (Tnovel) was measured by a trained observer and then the recognition index was calculated for each mouse [(Tnovel - Tfamiliar)/(Tfamiliar + Tnovel)] × 100.

mGlu7 receptor = biological target: T1, mGlu7 receptor (Homo sapiens, UniProt Q14831); test: HTRF cAMP assay: antagonism of L-Glu (EC80) inhibition of forskolin-stimulated cAMP accumulation (NAM profile); type: cell-based; settings: HEK 293 T-REx cells expressing mGlu7; 6.26 mM L-Glu (EC80); 5 μM forskolin; n = 3; read-out: IC50, antagonism of L-Glu inhibition of cAMP accumulation in the presence of forskolin
T1 construct: expressed in transfected cells
T1 sequence (Q14831 35-915): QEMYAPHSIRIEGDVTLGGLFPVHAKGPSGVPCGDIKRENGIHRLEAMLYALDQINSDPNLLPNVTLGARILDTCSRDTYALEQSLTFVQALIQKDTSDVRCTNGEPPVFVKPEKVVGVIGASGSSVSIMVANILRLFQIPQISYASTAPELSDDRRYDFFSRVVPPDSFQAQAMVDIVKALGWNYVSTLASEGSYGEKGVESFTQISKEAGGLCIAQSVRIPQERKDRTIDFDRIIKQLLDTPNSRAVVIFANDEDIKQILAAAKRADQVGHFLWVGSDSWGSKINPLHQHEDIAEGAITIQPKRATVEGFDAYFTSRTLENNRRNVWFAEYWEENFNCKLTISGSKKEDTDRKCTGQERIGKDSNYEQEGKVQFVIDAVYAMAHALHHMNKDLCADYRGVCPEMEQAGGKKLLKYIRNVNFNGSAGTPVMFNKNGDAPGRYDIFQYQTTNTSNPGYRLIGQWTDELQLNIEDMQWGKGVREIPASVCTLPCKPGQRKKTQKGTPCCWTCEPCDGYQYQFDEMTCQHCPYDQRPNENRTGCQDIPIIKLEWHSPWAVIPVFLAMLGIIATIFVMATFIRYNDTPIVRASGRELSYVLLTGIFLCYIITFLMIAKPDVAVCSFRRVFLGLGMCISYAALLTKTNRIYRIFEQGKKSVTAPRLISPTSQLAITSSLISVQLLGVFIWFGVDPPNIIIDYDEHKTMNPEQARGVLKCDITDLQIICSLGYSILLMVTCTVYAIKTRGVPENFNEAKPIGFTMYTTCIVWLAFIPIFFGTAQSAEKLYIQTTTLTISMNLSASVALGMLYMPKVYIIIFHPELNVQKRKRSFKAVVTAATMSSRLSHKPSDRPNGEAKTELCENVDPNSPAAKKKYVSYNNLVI
Protocol: A homogeneous time-resolved fluorescence (HTRF) cAMP dynamic 2 (Cisbio, Codolet, France) assay was performed as previously described ([Chruścicka et al., 2015]) with recombinant cell lines. Briefly, HEK 293 T-REx cells stably expressing mGlu7 receptor, were collected and suspended in Hanks-HEPES buffer. The cell suspension was added to compounds solution with 5 μM of forskolin (final concentration). After 5 min incubation in 37°C, 5 μl of cAMP-d2 conjugate in lysis buffer was added and mixed with the 10 μl cell suspension by means of an automated pipetting system (Tecan Evo 200, Tecan, Mannedorf, Switzerland). Next, 5 μl anti-cAMP cryptate conjugate was added and the fluorescence at 620 and 665 nm was read after 1 h (Tecan Infinite M1000). The results are shown as the 665 nm/620 nm ratio multiplied by 10^4. The detected signal was inversely proportional to the concentration of cAMP in the sample. […] Each experiment was performed three times (n = 3), and each data point was in triplicate.

[3] = tested on: field potentials in frontal cortical slices; test: Electrophysiology: field potentials in frontal cortical slices, mGlu7 KO mice; settings: for Before-after effect of the drug on FP amplitude: KO animals; for S (factor proportional to the slope of the curve) / Uh (stimulation intensity evoking FP of half-maximum amplitude) / Vmax (maximum FP amplitude, Boltzmann fit): slices from mGlu7 KO mice, after 20 min drug superfusion
Excerpt: Mice (wild and KO, approx. 25 g) were housed under a controlled light/dark cycle (light on: 0700–1900) and had free access to standard food and tap water. Mice were anesthetized with isoflurane (Aerrane, Baxter) decapitated, their brains were dissected and immersed in an ice-cold artificial cerebrospinal fluid (ACSF) of the following composition (in mM): NaCl (130), KCl (5), CaCl2 (2.5), MgSO4 (1.3), KH2PO4 (1.25), NaHCO3 (26), and glucose (10), bubbled with a mixture of 95% O2/5% CO2 to pH 7.4. Frontal cortical slices (bregma 1.9–1.4, 380 μm) were cut in a coronal plane using a vibrating microtome and they were stored at 32°C. A single slice was next transferred to the recording chamber (32°C ± 0.5°C) and superfused at 2.5 ml/min with a ACSF.
A bipolar stimulating electrode (FHC) was placed approx. 2 mm lateral to the midline and approx. 1.0 mm below the pial surface (in layer V) (Figure 1). Stimuli (duration: 0.2 ms) were applied at 0.033 Hz using a constant-current stimulus isolation unit (WPI). Field potentials (FPs) were recorded using glass micropipettes filled with ACSF (1–3 MΩ), which were placed approx. 0.2 mm below the cortical surface (in layer II/III). FPs were amplified (Axoprobe 1A, Axon Instruments), A/D converted at 10 kHz and stored using Micro1401 interface and Signal 4 software (CED).
The stimulus–response curves obtained for each slice were fit with the Boltzmann equation: Vi = Vmax/(1 + exp[(u - Uh)/-S]), where Vmax is the maximum FP amplitude; u is the stimulation intensity; Uh is the stimulation intensity evoking FP of half-maximum amplitude; S is the factor proportional to the slope of the curve; “exp” is exponentiation – mathematical operation. The results are expressed as the means ± SEM. Statistical analyses were carried out using t-test ([Tokarski et al., 2011]).
For each slice, at the beginning of the experiment an input-output curve was generated in ACSF. A stimulus-response (input-output) curve was made for each slice. […] One response was recorded at each stimulation intensity. […] Statistical analyzes were carried out using paired t-test and ANOVA.

[4] = tested on: MK-801-induced social interaction deficits; test: Social interaction test (MK-801-induced deficits); type: in vivo, Albino Swiss mice; settings: 30 min before MK-801 (0.3 mg/kg), mice
Protocol: The method was adapted from [de Moura Linck et al., 2008] and [Woźniak et al., 2016b]. After the 2-day habituation trial (10 min/day) a pair of mice was placed in the open field for 5 min. The social interactions between two mice were determined based on the total time spent participating in social behavior such as genital investigation, sniffing, chasing, and fighting each other. The total number of social episodes was also measured. The test was video-recorded and viewed by a trained observer.

[5] = tested on: amphetamine-induced hyperactivity; design: method as in Kalinichev et al., 2013; settings: 100 and 150 mg/kg, subcutaneous; ref Kalinichev et al., 2013; cited from earlier work
[6] = tested on: MK-801-induced disruption in spatial delayed alternation; test: Spatial delayed alternation test (T-maze); type: in vivo, Wistar rats; settings: 10 mg/kg, 30 min prior to MK-801 (0.1 mg/kg), rats
Protocol: The spatial delayed alternation test was performed using a wooden T-maze, according to [Sławińska et al., 2013] and [Wierońska et al., 2015b].
During the adaptation phase, lasting 3 days, the animals were allowed to freely explore the maze for 10 min. For the next 2 days, rats were confined to either of the two end-arms and allowed to drink a 10 % sucrose solution there for 10 min twice daily. On the following day, a 2-week training phase was started. The animals performed one training session per day, which consisted of one forced trial (i.e., one of the end-arms was closed) followed by ten free choice trials. During the free choice trial the animal was placed in the starting arm and after the guillotine door was raised, it was allowed to choose to enter one of the end-arms. After the response, the rat was placed back to the starting arm, where it stayed for 10 s. If the chosen end-arm was the opposite to the previously visited one, a correct response was scored, and the animal was closed in the compartment where it was allowed to drink the sucrose solution for 5 s. After an incorrect response, the animal was gently returned to the starting arm. The training phase was carried out until the animals scored 7 correct responses in a training session in 2 consecutive days.
The test was started 30 min after the MK-801 injection.

Compound | Metabolic stability (microsomes, mice) [1] | microsomal CLint [1] | Effect on MK-801-induced reduction of recognition index (NOR) ([2]; 1 mg/kg i.p.) | Effect on MK-801-induced reduction of recognition index (NOR) ([2]; 5 mg/kg i.p.) | Effect on MK-801-induced reduction of recognition index (NOR) ([2]; 15 mg/kg i.p.) | pIC50 (mGlu7 receptor) | Before-after effect of the drug on FP amplitude [3] | S (factor proportional to the slope of the curve) [3] | Uh (stimulation intensity evoking FP of half-maximum amplitude) [3] | Vmax (maximum FP amplitude, Boltzmann fit) [3] | Effect on MK-801-induced reduction of duration of social interaction ([4]; 5 mg/kg i.p.) | Effect on MK-801-induced reduction of number of social episodes ([4]; 5 mg/kg i.p.) | Effect on MK-801-induced reduction of duration of social interaction ([4]; 15 mg/kg i.p.) | Effect on MK-801-induced reduction of number of social episodes ([4]; 15 mg/kg i.p.) | Activity in amphetamine-induced hyperactivity [5] | Effect on MK-801-induced reduction of number of social episodes ([4]; 5, 10, and 20 mg/kg i.p.) | Effect on MK-801-induced reduction of time of interaction ([4]; 5, 10, and 20 mg/kg i.p.) | Effect on MK-801-induced reduction of choice accuracy (spatial delayed alternation) [6]
CCc1nc2c(o1)CC(c1ccc(C)cc1C)CC2=O (stereo not shown) [ADX71743, 6-(2,4-Dimethylphenyl)-2-ethyl-6,7-dihydro-4(5H)-benzoxazolone] | 0.01 | 500 µL/min/mg | significant reversal of MK-801-induced effect | significant reversal of MK-801-induced effect | significant reversal of MK-801-induced effect | 6.36 | 106% | 7.12 ± 0.41 | 26.06 ± 1.18 | 2.36 ± 0.18 | reversed the effect of MK-801 | reversed the effect of MK-801 | reversed the effect of MK-801 | reversed the effect of MK-801 | active |  |  | 
COc1ccc(-c2cc3onc(-c4ccncc4)c3c(=O)n2C)cc1 [MMPIP, 6-(4-Methoxyphenyl)-5-methyl-3-(4-pyridinyl)-isoxazolo(4,5-c)pyridin-4(5H)-one] | 49.78 | 38.7 µL/min/mg |  |  |  | 6.42 | 100,1% | 8.6 ± 1.01 | 22.1 ± 1.4 | 2.16 ± 0.2 |  |  |  |  |  | no effect | no effect | rescued the MK-801–induced cognitive impairments
